Results: patent US20060014677A1, “Method for maximizing efficacy and predicting and minimizing toxicity of calcineurin inhibitor compounds” (Isotechnika International Inc., priority 2004, published 2006)
≈ marks a conversion by molar mass, not a printed value.

Assays:
[1] = tested on: stable renal transplant patients; conditions: human, in vivo, 12 week
Description: (§1) At weeks 1, 6, and 12, serial whole blood samples were drawn and drug concentrations were determined. PK and PD were evaluated using standard non-compartmental analysis and a calcineurin inhibition assay. […] Whole blood lysates were evaluated for their ability to dephosphorylate a ^32P-labelled 19 amino acid peptide substrate in the presence of okadaic acid, a phosphatast type 1 and 2 inhibitor. Background phosphatase 2C activity (CsA and okadaic acid resistant activity) was determined and subtracted from each sample, with the assay performed in the presence and absence of excess added CsA. The remaining phosphatase activity was taken as calcineurin activity. Serum creatinine was measured from blood samples, as a measure of renal toxicity.
This discriminant analysis was performed using SPSS for Windows version 10.1 software available from SPSS Inc.
A measurement taken at 8 hours was used as peak concentration in the absence of a C2 measurement in this study. […] Cmin measurement could be a measurement taken at C0 or at C8, whichever measurement gave the lower measurement. […] Clinical diagnosis of renal toxicity may require an increase of, for example, 50% over baseline.

calcineurin = experiment: Calcineurin inhibition assay on whole blood lysates, PK-PD sigmoid Emax model (Study A, phase II); format: in vivo, human; conditions: FIG. 4A/4B; peak (C2) concentration vs % CNI
Description: At weeks 1, 6, and 12, serial whole blood samples were drawn and drug concentrations were determined. PK and PD were evaluated using standard non-compartmental analysis and a calcineurin inhibition assay. […] Whole blood lysates were evaluated for their ability to dephosphorylate a ^32P-labelled 19 amino acid peptide substrate in the presence of okadaic acid, a phosphatast type 1 and 2 inhibitor. Background phosphatase 2C activity (CsA and okadaic acid resistant activity) was determined and subtracted from each sample, with the assay performed in the presence and absence of excess added CsA. The remaining phosphatase activity was taken as calcineurin activity.
(§2) A direct PK-PD correlation was performed using a sigmoid Emax model.
AIC is the Akaike Information Criterion. It is a dimensionless “goodness of fit” parameter that is a modification of an ‘F-test.’ The lower the AIC number the better the fit. This relationship was constructed using concentrations from trough (C0) through hour 4 (C4).

psoriasis patients = experiment: Psoriasis Area and Severity Index (PASI) vs trough concentration in psoriasis patients; format: in vivo, human; conditions: FIG. 2
Excerpt: While % CNI is used in FIG. 1 to illustrate drug efficacy, there are other ways to measure transplant drug efficacy or calcineurin inhibitor drug efficacy. For example, in animal models, graft survival in transplantation is an indication of immunosuppressive drug efficacy. However, graft survival is an experimental model that takes a long time to measure and is complicated in that grafts may not survive for reasons other than the effective concentration of immunosuppressive agents. For example, prolonged cold ischemic time, donor/recipient mismatch or surgical technique may affect outcome of a graft. In human transplant patients, episodes of rejection may be indicators of failure of a calcineurin inhibitor. Other markers may be patient survival, in the case of transplant. For Psoriasis, a decrease in Psoriasis Area and Severity Index (PASI) score is an indication of effective treatment of psoriasis. A 75% reduction in PASI score is commonly held as a successful therapy.
Using PASI score as another indicator of drug efficacy, FIG. 2 illustrates that as drug concentration increases, the PASI score, an indicator of psoriasis severity, decreases. […] EC50 is an indication of the potency of the drug. […] FIG. 2 illustrates the relationship between trough drug concentration (C0) and PASI score on day 42 of treatment where E equals effect, in this case measured by PASI score.

clinical = conditions: human, in vivo
Description: as §1, §2
A measurement taken at 8 hours was used as peak concentration in the absence of a C2 measurement in this study. […] Cmin measurement could be a measurement taken at C0 or at C8, whichever measurement gave the lower measurement.
Percent fluctuation (FLU) was calculated as shown in Formula (2): [formula]

In the case of `C=C/C=C/C[C@@H](C)[C@@H](O)[C@H]1C(=O)N[C@@H](CC)C(=O)N(C)CC(=O)N(C)[C@@H](CC(C)C)C(=O)N[C@@H](C(C)C)C(=O)N(C)[C@@H](CC(C)C)C(=O)N[C@@H](C)C(=O)N[C@H](C)C(=O)N(C)[C@@H](CC(C)C)C(=O)N(C)[C@@H](CC(C)C)C(=O)N(C)[C@@H](C(C)C)C(=O)N1C` [ISA247], the “number of patients with normal renal function (actual group membership)” value [1] is reported as 121, the “number of patients with renal toxicity (actual group membership)” value [1] is reported as 26 and the EC50 (calcineurin) is reported as 161.8+54.5 ng/mL. The “Emax, maximum possible mean PASI” value (psoriasis patients; trough (C0) concentration vs PASI on day 42) was 22.9±7 PAS1, the EC50 (psoriasis patients; Homo sapiens, 1008 h, read-out: EC50, trough concentration required to achieve a 50% reduction in PASI, trough (C0), day 42 of treatment) was 0.0135 ± 0.0081 µg/mL (≈ 0.0111 µM) and the “Cmax, mean” value (clinical) was 159.59 ng/mL. The “t1/2, comparison between the two drugs” value (clinical) was “similar”, the “time to maximum concentration (tmax), comparison between the two drugs” value (clinical) was “similar” and the “C8, mean” value (clinical; 8 h) was 54.327 ng/mL. For the same compound, the concentration at 8 h (clinical; C8, mean) was 37.3 ng/mL and the Cmax (clinical; Cmax, mean) was 188 ng/mL.
